Experimental data taken from the NIST ThermoML archive (doi:10.1021/acs.jced.9b00415).

Assay: xn = mol fraction of the nth substance listed
Conditions: 102 kPa, Liquid; for viscosity: Concentric cylinders viscometry; for mass density: Vibrating tube method

CCCCn1cc[n+](C)c1.CS(=O)(=O)[O-] [1-butyl-3-methylimidazolium methanesulfonate] + CCCCn1cc[n+](C)c1.O=[N+]([O-])[O-]
Conditions | mass density [kg/m3] | viscosity [mPa·s]
303.15 K, x2 = 0.9 | 1154.3 | 180.1
308.15 K, x2 = 0.9 | 1151.1 | 135.4
313.15 K, x2 = 0.8 | 1149.3 | 113.6
313.15 K, x2 = 0.9 | 1147.9 | 104
318.15 K, x2 = 0.6 | 1150.5 | 103
318.15 K, x2 = 0.7 | 1148.5 | 97.85
318.15 K, x2 = 0.8 | 1146.2 | 88.38
318.15 K, x2 = 0.9 | 1144.7 | 81.49
323.15 K, x2 = 0.6 | 1147.3 | 80.7
323.15 K, x2 = 0.7 | 1145.4 | 77.05
323.15 K, x2 = 0.8 | 1143 | 70.03
323.15 K, x2 = 0.9 | 1141.6 | 64.96
328.15 K, x2 = 0.4 | 1146.9 | 70.76
328.15 K, x2 = 0.5 | 1145.4 | 66.57
328.15 K, x2 = 0.6 | 1144.1 | 64.37
328.15 K, x2 = 0.7 | 1142.2 | 61.72
328.15 K, x2 = 0.8 | 1139.9 | 56.42
328.15 K, x2 = 0.9 | 1138.5 | 52.61
333.15 K, x2 = 0.3 | 1144.9 | 59.13
333.15 K, x2 = 0.4 | 1143.8 | 56.85
333.15 K, x2 = 0.5 | 1142.2 | 53.7
333.15 K, x2 = 0.6 | 1141 | 52.18
333.15 K, x2 = 0.7 | 1139.1 | 50.22
333.15 K, x2 = 0.8 | 1136.8 | 46.14
333.15 K, x2 = 0.9 | 1135.4 | 43.23
338.15 K, x2 = 0.3 | 1141.8 | 48.04
338.15 K, x2 = 0.4 | 1140.6 | 46.37
338.15 K, x2 = 0.5 | 1139.1 | 43.99
338.15 K, x2 = 0.6 | 1137.9 | 42.9
338.15 K, x2 = 0.7 | 1136 | 41.44
338.15 K, x2 = 0.8 | 1133.7 | 38.25
338.15 K, x2 = 0.9 | 1132.3 | 35.99
343.15 K, x2 = 0.3 | 1138.6 | 39.58
343.15 K, x2 = 0.4 | 1137.5 | 38.34
343.15 K, x2 = 0.5 | 1136 | 36.52
343.15 K, x2 = 0.6 | 1134.8 | 35.74
343.15 K, x2 = 0.7 | 1132.9 | 34.63
343.15 K, x2 = 0.8 | 1130.6 | 32.11
343.15 K, x2 = 0.9 | 1129.3 | 30.32
348.15 K, x2 = 0.1 | 1138.3 | 34.98
348.15 K, x2 = 0.2 | 1136.8 | 34.5
348.15 K, x2 = 0.3 | 1135.5 | 33.03
348.15 K, x2 = 0.4 | 1134.4 | 32.1
348.15 K, x2 = 0.5 | 1132.9 | 30.69
348.15 K, x2 = 0.6 | 1131.7 | 30.13
348.15 K, x2 = 0.7 | 1129.9 | 29.28
348.15 K, x2 = 0.8 | 1127.6 | 27.25
348.15 K, x2 = 0.9 | 1126.2 | 25.81
353.15 K, x2 = 0.1 | 1135.2 | 29.38
353.15 K, x2 = 0.2 | 1133.6 | 29.04
353.15 K, x2 = 0.3 | 1132.4 | 27.88
353.15 K, x2 = 0.4 | 1131.3 | 27.17
353.15 K, x2 = 0.5 | 1129.8 | 26.08
353.15 K, x2 = 0.6 | 1128.6 | 25.68
353.15 K, x2 = 0.7 | 1126.8 | 25.02
353.15 K, x2 = 0.8 | 1124.5 | 23.36
353.15 K, x2 = 0.9 | 1123.2 | 22.2
358.15 K, x2 = 0.1 | 1132 | 24.94
358.15 K, x2 = 0.2 | 1130.5 | 24.71
358.15 K, x2 = 0.3 | 1129.3 | 23.79
358.15 K, x2 = 0.4 | 1128.2 | 23.23
358.15 K, x2 = 0.5 | 1126.8 | 22.38
358.15 K, x2 = 0.6 | 1125.6 | 22.09
358.15 K, x2 = 0.7 | 1123.8 | 21.57
358.15 K, x2 = 0.8 | 1121.5 | 20.21
358.15 K, x2 = 0.9 | 1120.2 | 19.26
363.15 K, x2 = 0.1 | 1128.9 | 21.39
363.15 K, x2 = 0.2 | 1127.4 | 21.27
363.15 K, x2 = 0.3 | 1126.2 | 20.51
363.15 K, x2 = 0.4 | 1125.1 | 20.04
363.15 K, x2 = 0.5 | 1123.7 | 19.36
363.15 K, x2 = 0.6 | 1122.5 | 19.18
363.15 K, x2 = 0.7 | 1120.7 | 18.76
363.15 K, x2 = 0.8 | 1118.5 | 17.63
363.15 K, x2 = 0.9 | 1117.2 | 16.86
